In patent US11401255B2, “Small molecule activators of Parkin enzyme function” (Mayo Foundation for Medical Education and Research, priority 2016, dated 2022):

Tests used:
FLAG-Parkin C431S = FLAG-Parkin C431S (Homo sapiens (Human), UniProt O60260, C431S); assay: Ub-charging of FLAG-Parkin C431S (MSD assay); type: cell-based; conditions: 5 μM, 2 h before 3.5 μM CCCP
Method: Ubiquitin charging of Parkin was monitored by ELISA-like MesoScale Discovery assay that uses electrochemiluminescence. Plates were coated with Flag antibody and incubated with lysates from 3×FLAG-Parkin C431S cells that had been pretreated for 2 h with 5 μM of Compounds 1, 2, 3, 4, and 31 or DMSO (left, −) before incubating them for another 2 h with (+) or without (−) low-dose (3.5 μM) CCCP. Positive control (PC) cells were treated with 10 μM CCCP. After washing, pS65-Ub antibody was added together with a sulfo-tagged anti-rabbit antibody. Values were normalized to the PC (10 μM CCCP) and negative control (−). Statistical analysis was performed by one-way ANOVA with Tukey's post-hoc test. ****, p<0.0001.
For ELISA assays, 96-well standard bind plates (Mesoscale Discovery) were coated with antibodies (FLAG, Sigma, F3165 or pSer65-Ub, both 1:250) in bicarbonate buffer (15 mM Na2CO3, 35 mM NaHCO3, pH 9.4) overnight and blocked with 5% BSA in TBS containing 0.02% Tween-20 (TBST). For Parkin Ub-charging, cell lysates were prepared in RIPA buffer (50 mM Tris pH 8.0, 150 mM NaCl, 1% NP-40, 0.5% deoxycholate, 0.1% sodium dodecyl sulphate (SDS)). 25 μg of lysates were added to the plates and incubated for 2 h. To quantify pSer65-Ub, cell lysates were prepared in NP-40 buffer (50 mM Tris pH 7.6, 150 mM NaCl, and 0.5% NP-40) and diluted to 0.18% NP-40 with 1% BSA in TBST. 6.25 μg of lysates were added to the plates overnight and incubated at 4° C. After primary antibody incubation, plates were washed and incubated with mouse detection antibodies (Ub, CST, #3933 or Ub, Millipore, MAB 150 both 1:250) for 1 h at RT. Secondary sulfo-tag conjugated antibodies were incubated for 1 h in 1% BSA/TBST before plates were measured in 2× READ buffer using a Mesoscale Discovery Sector Imager 2400 (both Mesoscale Discovery).

TA 100 = assay: Ames Test, strain TA 100
Text: The test used amino acid-dependent strains of Salmonella typhimurium and Escherichia coli to detect point mutations which involved substitution, addition or deletion of one or a few DNA base pairs. Point mutations were introduced in the histidine (Salmonella typhimurium) or the tryptophan (Escherichia coli) operon, making the tester strains incapable of producing these amino acids. The test detected mutations that revert the mutations present in the bacteria, restoring the functional capability to synthesize histidine or tryptophan. The revertant bacteria were detected by the ability to grow in the absence of the amino acid required by the parent test strain. A mutagenic potential of a tested compound was assessed by exposing these bacterial strains to different concentrations of the compounds and estimating number of revertant colonies grown in the absence (trace quantities) of the amino acid.
DMSO was used as the negative control.
For each experiment, tester strain cultures were grown overnight in Oxoid nutrient broth #2 at 37° C. with shaking at 235 rpm to a density of 1-2×10^9 colony forming units/mL (OD540˜2).
The tester strain (10 μL of night culture) was mixed with the test agent (10 µL of the DMSO stock) and GM liquid medium (30 μL). The obtained mixture was incubated at room temperature for 5 min in a sterile 1.5 mL tube. Then, to the tube was added 200 μL of molten top agar stored at 44° C. to prevent solidifying. After mixing with a pipette, the mixture was poured onto the surface of a GM agar plate (2.0 mL of GM agar per plate). After solidifying the top agar, the plate was inverted and incubated at 37° C. for 48 hours. Then, results were expressed as number of revertant colonies per plate.

[1] = system: CYP450 panel (1A2, 2C9, 2C19, 2D6, 3A4); assay: P450-Glo CYP450 inhibition, whole panel; type: in vitro ADME; conditions: 10 μM
Method: All test points were performed in quadruplicates. Control membranes (without CYPs) represented the Negative control (baseline). DMSO final concentration was 0.25%.

SMILES | Ub-charging of FLAG-Parkin C431S (MSD assay) (FLAG-Parkin C431S) | Fold increase (over baseline) (TA 100; TA 100, 50 μM) | Mean ± SD (TA 100; TA 100, 50 μM) | Fold increase (over baseline) (TA 100; TA 100, 100 μM) | Mean ± SD (TA 100; TA 100, 100 μM) | Fold increase (over baseline) (TA 100; TA 100, 200 μM) | Mean ± SD (TA 100; TA 100, 200 μM) | inhibition of all 5 tested CYP450 [1] | mutagenic activity (TA 100; TA 100, both 100 and 200 μM)
O=C(Cn1cnc2c1CCCC2)Nc1ccc(-c2ccccc2)cc1 [Compound 1] | enhanced Ub-charging | 0 | 0 ± 0 revertant colonies per plate | 0 | 0 ± 0 revertant colonies per plate | 0 | 0 ± 0 revertant colonies per plate | – | –
CC(C)c1nccn1CC(=O)Nc1ccc(-c2ccccc2)cc1 [Compound 2] | enhanced Ub-charging | 1.37 | 8.5 ± 6.36 revertant colonies per plate | 0.97 | 6 ± 2.83 revertant colonies per plate | 1.61 | 10 ± 0 revertant colonies per plate | – | –
CC(C)(C)Sc1ccc(NC(=O)Cn2ccnc2)cc1 [Compound 3] | enhanced Ub-charging | 0.85 | 5.5 ± 0.7 revertant colonies per plate | >32 | >200 revertant colonies per plate | >48 | >300 revertant colonies per plate | very high inhibition | mutagenic activity
O=C(Cn1ccnc1-c1ccccn1)Nc1ccc(-c2ccccc2)cc1 [Compound 4] | enhanced Ub-charging | 0.89 | 5.5 ± 2.12 revertant colonies per plate | 1.2 | 7.5 ± 3.54 revertant colonies per plate | 0.65 | 4 ± 1.41 revertant colonies per plate | did not show a significant inhibition | –
Cc1nc2c(c(N3CCCN(Cc4ccccc4)CC3)n1)CCCC2 [Compound 31] | enhanced Ub-charging | 1.04 | 6.5 ± 0.7 revertant colonies per plate | 0.97 | 6 ± 0 revertant colonies per plate | 0.97 | 6 ± 1.41 revertant colonies per plate | – | –
